The assay can be described thus: Inhibition of Francisella tularensis FabI.

Molecules are shown by their SMILES.

`C[C@@H](c1ccc(Cl)c(Cl)c1)n1cnc2cc3c(cc21)CCCC3` returned an IC50 of 0.014 µM. In turn, `C[C@@H](c1ccc(Cl)c(Cl)c1)n1cnc2cc3c(cc21)CCC3` came in with an IC50 of 0.016 µM. The value for `C[C@H](c1ccc(Cl)c(Cl)c1)n1cnc2cc3c(cc21)CCC3` was 1.84 µM. The same measure for `C[C@H](c1ccc(Cl)c(Cl)c1)n1cnc2cc3c(cc21)CCCC3`: 7.8 µM.

These data come from ChEMBL document CHEMBL4219258, “Determination of absolute configuration and binding efficacy of benzimidazole-based FabI inhibitors through the support of electronic circular dichroism and MM-GBSA techniques” (Bioorg Med Chem Lett, 2018).
